Experiments:
[1] = tested on: TNF-α secretion from h-PBMC's; assay: TNF-α release from h-PBMC's, ELISA; assay type: cell-based, human; settings: 24 hours, ± SD
Procedure: Authentic samples of agrimoniin and coriariin A were supplied by Professor Yoshida (Okayama University, Japan). Dimeric gallotannin (analog of coriariin A) and β-D-PGG were synthesized as described. LPS (E. coli 055:B5 phenol extract, MW range 50-100 KD). Ficoll-Histopaque (ρ=1.077 g/mL), Fetal Bovine Serum, sterile, hybridoma tested (FCS), gentamicin 10 mg/mL. L-glutamine, 200 mM. Dextran B-512 Leuconostoc Av M.W. 580000, and Trypan Blue stain were purchased from Sigma. Hanks Buffer Saline Solution 1×, with phenol red, mediatech (HBSS) and RPMI 1640 1×, mediatech were purchased from Fisher Scientific, Human IL-1β and TNF-α Enzyme Linked ImmunoSorbent Assay (ELISA) kits were purchased from R and D Systems, Minneapolis, Minn. Fresh heparinized blood was obtained from health human subjects (ages 20-34).
Dose-Response Data: General Procedure. H-PBMC's were isolated by reported procedures (10. 18). The cells counted and the viability was determined by Trypan Blue exclusion (typically, viability exceeded 95%). The concentration of the cells in the 0.5 mL wells was adjusted to 1×10^6 cells/well by diluting with the required amount of RPMI.
The appropriate amount of a tannin (or LPS) stock solution in HBSS was added to each well to furnish the concentration values reported in the Figures. […] The culture plates were incubated in a 5% CO2, 37° C. humidified incubator for the indicated time. At the end of the time interval, 450 μL of the culture supernatant from each well was harvested, after centrifugation at 400 g, 25° C., 10 min. with brake, and stored at −78° C. pending ELISA analysis for the cytokine(s). The ELISA assays were conducted per the manufacturer's instructions using standard calibration curves to calculate cytokine concentration from observed absorbance readings. The cytokine values reported are averages of three runs±SE.
The dimeric antitumor ellagitannins coriariin A and agrimoniin, the monomeric gallotannin β-D-pentagalloylglucose (β-D-PGG) and the dimeric gallotannin of this invention were all examined in this study. The dimeric gallotannin is an analog of coriariin A and is identical to the parent ellagitannin except that the galloyl rings at O(4) and O(6) are not joined in a hexahydroxydiphenoyl (HHDP) linkage. h-PBMC's were incubated with the compound under investigation for the indicated length of time and the amounts of both IL-1β and, independently, TNF-α, present in the culture supernatants was determined using commercially available ELISA kits. In each case, LPS was used as a positive control while untreated cells were reserved as negative controls.
In the first study, the induction of TNF-α secretion from h-PBMC's in the presence of each compound 17c-21c was measured. The h-PBMC's were incubated with each compound for 24 hours. The TNF-α levels in the cell culture supernatant were assayed by Enzyme Linked ImmunoSorbant Assay (ELISA). The data point for each assay represent the mean of triplicate measurements. […] (See FIG. 11).

[2] = tested on: LPS induced TNF-α secretion from h-PBMC's; assay: Inhibition of LPS induced TNF-α secretion from h-PBMC's; assay type: cell-based, human; settings: for TNF-α secreted in the presence of LPS and 17c-20c: compound 10 μg/mL added after 45 minutes, h-PBMC's 3rd subject; for TNF-α secreted in the presence of LPS and 17c-20c / TNF-α secreted in the presence of LPS and 19c / 20c / TNF-α secreted in the presence of LPS and 18c-20c: ± SD; for TNF-α secreted in the presence of LPS and 19c / 20c: 8 h incubation; for TNF-α secreted in the presence of LPS and 19c / 20c / TNF-α secreted in the presence of LPS and 18c-20c: 4th subject
Procedure: In the second study, the ability of compounds 17c-20c to inhibit LPS induced TNF-α production in h-PBMC's was investigated using four assays. The first experiment was a kinetics run in which the h-PBMC's were initially incubated with a fixed concentration of LPS (5 μg/mL) for 45 minutes. This incubation period was followed by addition of a fixed concentration (10 μg/mL) of compounds 17c-20c. The cells were harvested at varying intervals of time. […] The optimal time was determined by comparing the amount of TNF-α secreted by LPS alone to the amount of TNF-α secreted by LPS and substrate at each time point.
The second assay determined the minimum amount of substrate required for inhibition. LPS (10 μg/mL) was incubated with h-PBMC's for 45 minutes followed by addition of 17c-20c at varying concentrations. The cell culture supernatant was harvested after 8 hours. The inherent variability in using cells from different subjects, or in the day of assay, made it difficult to compare overall effectiveness of inhibitors. Therefore, to more easily identify the concentration at which maximum inhibition occurs for a given compound, the TNF-α secretion was normalized by calculating a percent of maximum secretion value (based on LPS alone) (FIG. 13). […] The optimal concentration for inhibition varied between substrates, but the general dose response trend was the same. Overall, the maximum inhibition was 45% for 18c and 20c, and 25% for 19c.
The third assay investigated the ability of 17c, 18c, and 20c to inhibit LPS induced TNF-α secretion using a smaller dosage of LPS (5 μg/mL) (FIG. 14). Again, the response was dose dependent. The maximum inhibition was 45% for 17c and 20c, and 35% for 18c.
In the fourth assay the varying concentrations of substrates 17c-20c and LPS were added at the same time to determine the effect of addition sequence on the inhibition of TNF-α secretion (FIG. 15). The addition time seemed to make a difference in the overall dose response trend. However, maximum inhibition was the same as when the compounds were added 45 minutes after LPS addition (about 40% for each compound).
Finally, in the last study, analogs 19c and 20c were again tested for inhibition LPS induced TNF-α secretion (FIG. 17). In this assay a smaller dose of LPS was used to determine if inhibition was greater when much lower doses of LPS were present. The substrates were added 45 minutes after LPS addition and the cells were harvested after 8 hours. It doesn't appear as though the substrates are better inhibitors when smaller amounts of LPS are used, again perhaps reflecting receptor saturation with LPS at this dosage.

[3] = LPS 10 μg/mL, substrate added after 45 minutes, 8 hours
[4] = compound 0.6 μM added 45 minutes after LPS 10 μg/mL, 8 hours
[5] = compound 2.9 μM added 45 minutes after LPS 10 μg/mL, 8 hours
[6] = compound 5.9 μM added 45 minutes after LPS 10 μg/mL, 8 hours
[7] = compound 11.7 μM added 45 minutes after LPS 10 μg/mL, 8 hours
[8] = compound 23.5 μM added 45 minutes after LPS 10 μg/mL, 8 hours

SMILES | TNF-α secreted in the presence of 17c-21c ([1]; compound 0.6 μM) [pg/mL] | TNF-α secreted in the presence of LPS and 17c-20c ([2]; LPS 5 μg/mL, time 1 h) [pg/mL] | TNF-α secreted in the presence of LPS and 17c-20c ([2]; LPS 5 μg/mL, time 4 h) [pg/mL] | TNF-α secreted in the presence of LPS and 17c-20c ([2]; LPS 5 μg/mL, time 8 h) [pg/mL] | TNF-α secreted in the presence of LPS and 17c-20c ([2]; LPS 5 μg/mL, time 12 h) [pg/mL] | TNF-α secreted in the presence of LPS and 17c-20c ([2]; LPS 5 μg/mL, time 16 h) [pg/mL] | TNF-α secreted in the presence of LPS and 17c-20c ([2]; LPS 5 μg/mL, time 24 h) [pg/mL] | maximum inhibition of LPS induced TNF-α secretion ([2]; LPS 5 μg/mL, 3rd subject) [%] | maximum inhibition of LPS induced TNF-α secretion [2, 3] [%] | TNF-α secreted in the presence of LPS and 18c-20c [2, 4] [% max. response] | TNF-α secreted in the presence of LPS and 18c-20c [2, 5] [% max. response] | TNF-α secreted in the presence of LPS and 18c-20c [2, 6] [% max. response] | TNF-α secreted in the presence of LPS and 18c-20c [2, 7] [% max. response] | TNF-α secreted in the presence of LPS and 18c-20c [2, 8] [% max. response] | other results
O=C(CCCCCC(=O)OC1O[C@H](COC(=O)c2cc(O)c(O)c(O)c2)[C@@H](OC(=O)c2cc(O)c(O)c(O)c2)[C@H](OC(=O)c2cc(O)c(O)c(O)c2)[C@H]1OC(=O)c1cc(O)c(O)c(O)c1)OC1O[C@H](COC(=O)c2cc(O)c(O)c(O)c2)[C@@H](OC(=O)c2cc(O)c(O)c(O)c2)[C@H](OC(=O)c2cc(O)c(O)c(O)c2)[C@H]1OC(=O)c1cc(O)c(O)c(O)c1 (mixture of isomers) [Compound 20c, 1,1′-O-2,2′,3,3′,4,4′,6,6′-Tetrakis(3,4,5-trihyroxybenzoyl)-β,β′-D,D′-glucopyranosylpimelate] | 0 | 243.6 ± 52.8 | 2370.1 ± 95.7 | 2889.8 ± 383.2 | 2313.2 ± 339.1 | 2628.4 ± 571.0 | 2356.4 ± 400.3 | 45 | 45 | 89.8 ± 9.2 | 65.6 ± 8.3 | 67.1 ± 8.9 | 63.3 ± 4.7 | 63.9 ± 13.9 | TNF-α secreted in the presence of 17c-21c ([1]; compound 2.8 μM): 0 pg/mL; TNF-α secreted in the presence of 17c-21c ([1]; compound 5.6 μM): 0 pg/mL; TNF-α secreted in the presence of 17c-21c ([1]; compound 11.2 μM): 0 pg/mL; TNF-α secreted in the presence of 17c-21c ([1]; compound 16.8 μM): 0 pg/mL; TNF-α secreted in the presence of 17c-21c ([1]; compound 22.3 μM): 0 pg/mL; TNF-α secreted in the presence of 17c-21c ([1]; compound 27.9 μM): 0 pg/mL; TNF-α secreted in the presence of LPS and 19c / 20c ([2]; compound 0.6 μM added 45 minutes after LPS 1 μg/mL): 109.1 ± 14.9 % max. response; TNF-α secreted in the presence of LPS and 19c / 20c ([2]; compound 1.8 μM added 45 minutes after LPS 1 μg/mL): 110.6 ± 1.3 % max. response; TNF-α secreted in the presence of LPS and 19c / 20c ([2]; compound 3.5 μM added 45 minutes after LPS 1 μg/mL): 62.4 ± 10.2 % max. response; TNF-α secreted in the presence of LPS and 19c / 20c ([2]; compound 5.9 μM added 45 minutes after LPS 1 μg/mL): 69.5 ± 27.9 % max. response; TNF-α secreted in the presence of LPS and 19c / 20c ([2]; compound 11.8 μM added 45 minutes after LPS 1 μg/mL): 98.4 ± 12.1 % max. response
O=C(OC[C@H]1O[C@@H](OC(=O)c2cccc(C(=O)O[C@@H]3O[C@H](COC(=O)c4cc(O)c(O)c(O)c4)[C@@H](OC(=O)c4cc(O)c(O)c(O)c4)[C@H](OC(=O)c4cc(O)c(O)c(O)c4)[C@H]3OC(=O)c3cc(O)c(O)c(O)c3)c2)[C@H](OC(=O)c2cc(O)c(O)c(O)c2)[C@@H](OC(=O)c2cc(O)c(O)c(O)c2)[C@@H]1OC(=O)c1cc(O)c(O)c(O)c1)c1cc(O)c(O)c(O)c1 [Compound 18c, 1,1′-O-2,2′,3,3′,4,4′,6,6′-Tetrakis(3,4,5-trihydroxybenzoyl)-β,β′-D-glucopyranosylisophthalate] | 8.9 ± 5.6 | 594.6 ± 93.2 | 1523.3 ± 472.8 | 2829.3 ± 52.6 | 2448.1 ± 43.6 | 3956.3 ± 524.5 | 2002.1 ± 95.1 | 35 | 45 | 69.0 ± 4.9 | 71.9 ± 15.2 | 59.5 ± 9.5 | 54.4 ± 15.4 | 60.6 ± 9.9 | TNF-α secreted in the presence of 17c-21c ([1]; compound 2.9 μM): 11.9 ± 5.2 pg/mL; TNF-α secreted in the presence of 17c-21c ([1]; compound 5.9 μM): 6.7 ± 2.9 pg/mL; TNF-α secreted in the presence of 17c-21c ([1]; compound 11.8 μM): 9.5 ± 7.2 pg/mL; TNF-α secreted in the presence of 17c-21c ([1]; compound 17.6 μM): 11.4 ± 9.2 pg/mL; TNF-α secreted in the presence of 17c-21c ([1]; compound 23.5 μM): 3.3 ± 2.6 pg/mL; TNF-α secreted in the presence of 17c-21c ([1]; compound 29.4 μM): 8.5 ± 3.5 pg/mL
